The text below walks through data of patent US20130131073A1, “FUSED-IMIDAZOYL COMPOUNDS USEFUL AS ANTIMICROBIAL AGENTS” (priority 2010, published 2013).

The subject of the experiment is Staphylococcus aureus ATCC29213. Kind of experiment: Broth microdilution susceptibility testing (MIC determination). The class given is cell-based. Particulars: Mueller Hinton broth, overnight incubation at 35° C., lowest concentration preventing visible growth, read-out: MIC Staph. aureus ATCC29213. How it is done: Susceptibility testing (MIC determinations) was performed using the standard broth microdilution methodology precisely as described in the Clinical Laboratory Standards Institute Document M7-A6; Methods for Dilution Antimicrobial Susceptibility Tests for Bacteria That Grow Aerobically; Approved Standard- Sixth Edition (ISBN 1-56238-486-4), CLSI, 940 West Valley Road, Suite 1400, Wayne, Pa. 19087-1898 USA. To perform the test, a series of 0.1 ml media in a 96-well plate is prepared with Mueller Hinton broth to which various concentrations of the test compound are added. The media are then inoculated with a standardized suspension of the test organism, Staphylococcus aureus ATCC29213. After overnight incubation at 35° C., the tests are examined and the minimal inhibitory concentration (MIC) is determined. MIC is defined as the lowest concentration of an antimicrobial agent that prevents visible growth of a microorganism in the broth microdilution susceptibility test
(Dilution methods test growth across graded concentrations, often in twofold steps.)

The structures appear in SMILES notation. Converted amounts (≈) assume the structure as drawn.

For the compound `O=C(CNc1c(-c2ccc(OC(F)(F)F)cc2)nc2cnccn12)N1CCN(c2ccccc2Cl)CC1` [compound 270], the MIC stood at 10 µg/mL (≈ 18.8 µM).

As to `CC(=O)N1CCN(C(=O)C(C)Nc2c(-c3ccc(N(C)C)cc3)nc3cnccn23)CC1` (centres unmarked) [compound 102], the minimal inhibitory concentration (MIC) came out at 1.25 µg/mL (≈ 2.87 µM).

With `Cc1cccc(N2CCN(C(=O)CNc3c(-c4ccc(OC(F)(F)F)cc4)nc4cnccn34)CC2)c1C` [compound 276], the minimum inhibitory concentration (MIC) is 10 µg/mL (≈ 19.1 µM).

`O=C(CNc1c(-c2ccc(OC(F)(F)F)cc2)nc2cnccn12)N1CCN(c2ccncc2)CC1` [compound 269]: the MIC is 1.25 µg/mL (≈ 2.51 µM).

Turning to `COCCCN1CCN(C(=O)CNc2c(-c3ccc(OC(F)(F)F)cc3)nc3cnccn23)CC1` [compound 281], the MIC is 5 µg/mL (≈ 10.2 µM).

As to `O=C(CNc1c(-c2ccc(OC(F)(F)F)cc2)nc2cnccn12)N1CCN(c2c(Cl)cncc2Cl)CC1` [compound 274], the MIC is 0.08 µg/mL (≈ 0.141 µM).

As to `COc1cc(OC)nc(CN2CCN(C(=O)CNc3c(-c4ccc(OC(F)(F)F)cc4)nc4cnccn34)CC2)n1` [compound 280], the MIC came out at 10 µg/mL (≈ 17.5 µM).

In the case of `C=CCN1CCN(C(=O)C(C)Nc2c(-c3ccc(OC(F)(F)F)cc3)nc3cnccn23)CC1` (centres unmarked) [compound 189], the minimal inhibitory concentration (MIC) came to 5 µg/mL (≈ 10.5 µM).

For `Cc1cccc(C)c1N1CCN(C(=O)CNc2c(-c3ccc(N(C)C)cc3)nc3cnccn23)CC1` [compound 26], the MIC turned out to be 2 µg/mL (≈ 4.14 µM).

For `CC(Nc1c(-c2ccc(OC(F)(F)F)cc2)nc2cnccn12)C(=O)N1CCN(C)CC1` (centres unmarked) [compound 184], the MIC was found to be 5 µg/mL (≈ 11.1 µM).

On to `CC(c1ccccc1)N1CCN(C(=O)CNc2c(-c3ccc(OC(F)(F)F)cc3)nc3cnccn23)CC1` (centres unmarked) [compound 295], for which the MIC stood at 10 µg/mL (≈ 19.1 µM).

In the case of `O=C(CNc1c(-c2ccc(OC(F)(F)F)cc2)nc2cnccn12)N1CCN(CCC2CCCCC2)CC1` [compound 277], the MIC came out at 2.5 µg/mL (≈ 4.71 µM).

For `CN1CCN(C(=O)CNc2c(-c3ccc(OC(F)(F)F)cc3)nc3cnccn23)CC1` [compound 268], the MIC came out at 10 µg/mL (≈ 23 µM).

Turning to `Cc1cccc(N2CCN(C(=O)C(C)Nc3c(-c4ccc(OC(F)(F)F)cc4)nc4cnccn34)CC2C)c1` (centres unmarked) [compound 318], the MIC came out at 10 µg/mL (≈ 18.6 µM).

`O=C(CNc1c(-c2ccc(OC(F)(F)F)cc2)nc2cnccn12)N1CCN(C(=O)OCc2ccccc2)CC1` [compound 275]: the MIC was 10 µg/mL (≈ 18 µM).

Take `CN(C)c1ccc(-c2nc3cnccn3c2NCC(=O)N2CCN(c3c(Cl)cncc3Cl)CC2)cc1` [compound 31]: the MIC was determined as 0.08 µg/mL (≈ 0.152 µM).

Take `O=C(CNc1c(-c2ccc(OC(F)(F)F)cc2)nc2cnccn12)N1CCN(c2nc(-c3ccccc3)ns2)CC1` [compound 282]: the MIC came to 5 µg/mL (≈ 8.61 µM).

As usually defined, the MIC is the least concentration at which growth counts as inhibited.
